Experimental data taken from patent US7160888B2, “[1,8]naphthyridin-2-ones and related compounds for the treatment of schizophrenia” (Warner Lambert Company LLC, priority 2003, dated 2007).

Biological target: D2 receptor (Homo sapiens, UniProt P14416)
Assay: [3H]Thymidine uptake assay for D2 intrinsic activity
Type: cell-based
Details: Table 1; test compound 1 μM; 1 μM Quinpirole = 100% intrinsic activity

Sequence of D2 receptor (P14416 whole entry): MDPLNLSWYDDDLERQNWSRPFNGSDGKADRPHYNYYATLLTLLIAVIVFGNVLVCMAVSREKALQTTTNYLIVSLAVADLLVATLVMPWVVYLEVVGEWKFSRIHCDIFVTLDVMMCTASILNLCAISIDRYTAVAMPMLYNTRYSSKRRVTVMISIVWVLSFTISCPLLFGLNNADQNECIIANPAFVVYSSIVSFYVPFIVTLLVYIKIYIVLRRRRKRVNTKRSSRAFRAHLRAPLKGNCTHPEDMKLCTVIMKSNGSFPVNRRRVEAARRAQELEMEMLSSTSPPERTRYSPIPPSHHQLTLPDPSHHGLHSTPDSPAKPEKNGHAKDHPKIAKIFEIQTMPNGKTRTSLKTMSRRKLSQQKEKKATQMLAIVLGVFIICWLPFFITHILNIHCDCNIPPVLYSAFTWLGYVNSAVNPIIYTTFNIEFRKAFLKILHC

SMILES | Emax at 1 µM [%]
CC(=O)c1c(Cl)cccc1N1CCN(CCCCOc2ccc3c(n2)NC(=O)CC3)CC1 [Example A28, 7-{4-[4-(2-Acetyl-3-chloro-phenyl)-piperazin-1-yl]-butoxy}-3,4-dihydro-1H-[1,8]naphthyridin-2-one] | 2
Cc1c(C)c2ccc(OCCCCN3CCN(c4cccc(Cl)c4Cl)CC3)nc2[nH]c1=O [Example D7, 7-{4-[4-(2,3-Dichloro-phenyl)-piperazin-1-yl]-butoxy}-3,4-dimethyl-1H-[1,8]naphthyridin-2-one] | 15
O=C1CCc2ccc(OCCCCN3CCN(c4cccc5c4CCCC5=O)CC3)nc2N1 [Example A58, 7-{4-[4-(5-Oxo-5,6,7,8-tetrahydro-naphthalen-1-yl)-piperazin-1-yl]-butoxy}-3,4-dihydro-1H-[1,8]naphthyridin-2-one] | 48
Cc1cc(=O)[nH]c2nc(OCCCCN3CCN(c4cccc(Cl)c4Cl)CC3)ccc12 [Example D1, 7-{4-[4-(2,3-Dichloro-phenyl)-piperazin-1-yl]-butoxy}-4-methyl-1H-[1,8]naphthyridin-2-one] | 31
N#Cc1ccc2cccc(N3CCN(CCCCOc4ccc5c(n4)NC(=O)NC5)CC3)c2c1 [Example F6, 8-{4-[4-(2-Oxo-1,2,3,4-tetrahydro-pyrido[2,3-d]pyrimidin-7-yloxy)-butyl]-piperazin-1-yl}-naphthalene-2-carbonitrile] | 37
CC1(C)CC(=O)Nc2nc(OCCCCN3CCN(c4cccc5ccccc45)CC3)ccc21 [Example D16, 4,4-Dimethyl-7-[4-(4-naphthalen-1-yl-piperazin-1-yl)-butoxy]-3,4-dihydro-1H-[1,8]naphthyridin-2-one] | 31
O=C1NCc2ccc(OCCCCN3CCN(c4cccc5ccc(F)cc45)CC3)nc2N1 [Example F5, 7-{4-[4-(7-Fluoro-naphthalen-1-yl)-piperazin-1-yl]-butoxy}-3,4-dihydro-1H-pyrido[2,3-d]pyrimidin-2-one] | 32
O=C1CCc2cnc(OCCCCN3CCN(c4cccc5c4CCC5)CC3)cc2N1 [Example I5, 7-[4-(4-Indan-4-yl-piperazin-1-yl)-butoxy]-3,4-dihydro-1H-[1,6]naphthyridin-2-one] | 23
O=C1CCc2ccc(CCCCCN3CCN(c4cccc5ccccc45)CC3)nc2N1 [Example C13, 7-[5-(4-Naphthalen-1-yl-piperazin-1-yl)-pentyl]-3,4-dihydro-1H-[1,8]naphthyridin-2-one] | 14
CC1(C)C(=O)Nc2nc(OCCCCN3CCN(c4cccc(Cl)c4Cl)CC3)ccc2C1O (centres unmarked) [Example D15, 7-{4-[4-(2,3-Dichloro-phenyl)-piperazin-1-yl]-butoxy}-4-hydroxy-3,3-dimethyl-3,4-dihydro-1H-[1,8]naphthyridin-2-one] | 25
COc1ccc2c(N3CCN(CCCCOc4ccc5ccc(=O)[nH]c5n4)CC3)cccc2c1 [Example B61, 7-{4-[4-(6-Methoxy-naphthalen-1-yl)-piperazin-1-yl]-butoxy}-1H-[1,8]naphthyridin-2-one] | 18
Cc1c(F)ccc(N2CCN(CCCCOc3ccc4c(n3)NC(=O)CC4)CC2)c1Cl [Example A15, 7-{4-[4-(2-Chloro-4-fluoro-3-methyl-phenyl)-piperazin-1-yl]-butoxy}-3,4-dihydro-1H-[1,8]naphthyridin-2-one] | 4
Cc1nc(OCCCCN2CCN(c3cccc(C(C)C)n3)CC2)nc2[nH]c(=O)ccc12 [Example H6, 2-{4-[4-(6-Isopropyl-pyridin-2-yl)-piperazin-1-yl]-butoxy}-4-methyl-8H-pyrido[2,3-d]pyrimidin-7-one] | 42
O=c1ccc2ccc(OCCCCN3CCN(c4cccc5c4CC(F)(F)C5)CC3)nc2[nH]1 [Example B46, 7-{4-[4-(2,2-Difluoro-indan-4-yl)-piperazin-1-yl]-butoxy}-1H-[1,8]naphthyridin-2-one] | 29
COc1c(Cl)cccc1N1CCN(CCCCOc2ccc3c(n2)NC(=O)CC3)CC1 [Example A17, 7-{4-[4-(3-Chloro-2-methoxy-phenyl)-piperazin-1-yl]-butoxy}-3,4-dihydro-1H-[1,8]naphthyridin-2-one] | 15
CC1(C)CC(=O)Nc2nc(OCCCCN3CCN(c4cccc(C5CC5)n4)CC3)ccc21 [Example D22, 7-{4-[4-(6-Cyclopropyl-pyridin-2-yl)-piperazin-1-yl]-butoxy}-4,4-dimethyl-3,4-dihydro-1H-[1,8]naphthyridin-2-one] | 42

Same assay, conditions: Table 2; test compound 1 μM; 1 μM Quinpirole = 100% intrinsic activity

SMILES | Emax at 1 µM [%]
CC1(C)Cc2cccc(N3CCN(CCCCOc4ccc5c(n4)NC(=O)CC5)CC3)c2O1 [Example A3′, 7-{4-[4-(2,2-Dimethyl-2,3-dihydro-benzofuran-7-yl)-piperazin-1-yl]-butoxy}-3,4-dihydro-1H-[1,8]naphthyridin-2-one] | 37
O=c1ccc2ccc(OCCCCN3CCN(c4cccc5c4OC4(CCCC4)CC5)CC3)nc2[nH]1 [Example B7′, 7-{4-[4-(3,4-Dihydrospiro[chromene-2,1′-cyclopentan]-8-yl)-piperazin-1-yl]-butoxy}-1H-[1,8]naphthyridin-2-one] | 48
O=C1CCc2cnc(OCCCCN3CCN(c4cccc5c4OCCO5)CC3)cc2N1 [Example H5′, 7-{4-[4-(2,3-Dihydro-benzo[1,4]dioxin-5-yl)-piperazin-1-yl]-butoxy}-3,4-dihydro-1H-[1,6]naphthyridin-2-one] | 14
O=C1CCc2ccc(OCCCCN3CCN(c4cccc5c4OC4(CCCC4)CC5)CC3)nc2N1 [Example A8′, 7-{4-[4-(3,4-Dihydrospiro[chromene-2,1′-cyclopentan]-8-yl)-piperazin-1-yl]-butoxy}-3,4-dihydro-1H-[1,8]naphthyridin-2-one] | 30
CN1CCCc2c1cccc2N1CCN(CCCCOc2ccc3ccc(=O)[nH]c3n2)CC1 [Example B28′, 7-{4-[4-(1-Methyl-1,2,3,4-tetrahydro-quinolin-5-yl)-piperazin-1-yl]-butoxy}-1H-[1,8]naphthyridin-2-one] | 44
CC1(C)C=Cc2cccc(N3CCN(CCCCOc4ccc5c(n4)NC(=O)CC5)CC3)c2O1 [Example A5′, 7-{4-[4-(2,2-Dimethyl-2H-chromen-8-yl)-piperazin-1-yl]-butoxy}-3,4-dihydro-1H-[1,8]naphthyridin-2-one] | 31
O=c1ccc2ccc(OCCCCN3CCN(c4cccc5sccc45)CC3)nc2[nH]1 [Example B25′, 7-[4-(4-Benzo[b]thiophen-4-yl-piperazin-1-yl)-butoxy]-1H-[1,8]naphthyridin-2-one] | 21

Test system: not given
Assay: not given
Details: not given

SMILES | melting point [°C]
CC(=O)c1c(Cl)cccc1N1CCN(CCCCOc2ccc3c(n2)NC(=O)CC3)CC1 [Example A28, 7-{4-[4-(2-Acetyl-3-chloro-phenyl)-piperazin-1-yl]-butoxy}-3,4-dihydro-1H-[1,8]naphthyridin-2-one] | 115
Cc1c(C)c2ccc(OCCCCN3CCN(c4cccc(Cl)c4Cl)CC3)nc2[nH]c1=O [Example D7, 7-{4-[4-(2,3-Dichloro-phenyl)-piperazin-1-yl]-butoxy}-3,4-dimethyl-1H-[1,8]naphthyridin-2-one] | 161 to 163
O=c1ccc2ccc(CCCCCN3CCN(c4cccc(Cl)c4Cl)CC3)nc2[nH]1 [Example C20, 7-{5-[4-(2,3-Dichloro-phenyl)-piperazin-1-yl]-pentyl}-1H-[1,8]naphthyridin-2-one] | 176 to 178
O=C1CCc2ccc(OCCCCN3CCN(c4cccc5c4CCCC5=O)CC3)nc2N1 [Example A58, 7-{4-[4-(5-Oxo-5,6,7,8-tetrahydro-naphthalen-1-yl)-piperazin-1-yl]-butoxy}-3,4-dihydro-1H-[1,8]naphthyridin-2-one] | 169 to 170
Cc1cc(=O)[nH]c2nc(OCCCCN3CCN(c4cccc(Cl)c4Cl)CC3)ccc12 [Example D1, 7-{4-[4-(2,3-Dichloro-phenyl)-piperazin-1-yl]-butoxy}-4-methyl-1H-[1,8]naphthyridin-2-one] | 181 to 182
CCOc1cccc(N2CCN(CCCCOc3ccc4c(n3)NC(=O)CC4)CC2)c1Cl [Example A21, 7-{4-[4-(2-Chloro-3-ethoxy-phenyl)-piperazin-1-yl]-butoxy}-3,4-dihydro-1H-[1,8]naphthyridin-2-one] | 110 to 112
